Measurements as given in patent US20080269201A1, “Azepane- or Azocane-Substituted Pyrazoline Derivatives, Their Preparation and Use as Medicaments” (LABORATORIOS DEL DR. ESTEVE, S.A., priority 2005, published 2008).

What was measured:
[1] = biological target: T1, transfected human CB1 receptor (Homo sapiens, UniProt P21554); assay: In-vitro determination of affinity to CB1/CB2 receptors, radioligand [3H]-CP55940; conditions: binding to CB1/CB2 receptors as described, table does not name the subtype, text points to CB1
T1 construct: purchased Receptor Biology, Inc
Method: The in-vitro determination of the affinity of the inventive quaternary ammonium salts of substituted pyrazoline compounds to CB1/CB2-Rezeptors is carried out as described in the publication of Ruth A. Ross, Heather C. Brockie et al., “Agonist-inverse agonist characterization at CB1 and CB2 cannabinoid receptors of L-759633, L759656 and AM630”, British Journal of Pharmacology, 126, 665-672, (1999), whereby the transfected human CB1 and CB2 receptors of Receptor Biology, Inc. are used. The radioligand used for both receptors is [^3H]-CP55940. The respective parts of the description are hereby incorporated by reference and forms part of the present disclosure.
The affinity of the inventive substituted pyrazoline compounds to CB1/CB2 receptors was determined as described above.

[2] = biological target: T2, recombinant human cannabinoid 1 receptor (CB1), CHO cell membranes (Homo sapiens, UniProt P21554); assay: [35S]GTPγS binding assay, antagonism against WIN 55,212-2; assay type: biochemical; conditions: compound at 1 μM against WIN 55,212-2 dose response; 100% = effect of internal standard CB1-antagonist
T2 construct: expressed in transfected cells; membranes prepared
Method: Chinese hamster ovary (CHO) cells stably expressing recombinant human cannabinoid 1 receptor (CB1) were cultured in nutrient mixture Ham's F 12 supplemented with 10% heat-inactivated fetal bovine serum, 2 mM L-glutamine, 50 U/ml penicillin, 50 U/ml streptomycin and 0.5 mg/ml geneticin. In order to obtain cells, culture flasks were washed twice with phosphate buffered saline and scraped. Then, cells were collected by centrifugation (200×g, 10 min) and stored dry at −80° C. Cells were homogenized in ice-cold 20 mM HEPES, 10 mM EDTA (pH 7.5) and centrifuged at 40,000×g for 15 min at 4° C. The pellet was resuspended in 20 mM HEPES, 0.1 mM EDTA (pH 7.5) and centrifuged for 15 min at 4° C. The final pellet was resuspended in 20 mM HEPES, 0.1 mM EDTA (pH 7.5), and divided in aliquots and stored at −80° C. until use.
The reaction was performed in 96-well plates. Membranes (15 µg protein/well) were incubated for 60 min at 30° C. in buffer (50 mM HEPES, 100 mM KCl, 5 mM MgCl2, 1 mM EDTA, 0.1% wt/vol bovine serum albumin, […], saponin (10 μg/ml), 0.5 nM [^35S]GTPγS, pH 7.4) with compound at 1 μM final concentration in either the absence or presence of dose response curve of agonist WIN 55, 212-2 between 3 nM and 3 μM. The incubation was terminated by rapid filtration through Millipore Multiscreen glass fiber FB, and rinsed two-times with ice-cold assay buffer. Filter plates were dried and 30 μl of scintillation liquid was added. Radioactivity was determined using Wallac Microbeta Trilux. Each experiment was performed at least in duplicate. A WIN 55, 212-2 dose-response was systematically performed.
The average of basal [^35S]GTPγS binding was subtracted from all binding data. In order to compare the antagonism results from one screening campaign to another one, the difference between the maximal agonist effect of WIN 55, 212-2 alone, and the maximal antagonism effect due to WIN 55, 212-2 with an internal standard CB1-antagonist was defined as 100%.
The determination of cannabinoid activity in-vivo was determined as described above.

[3] = In vivo testing for antiobesic activity, acute treatment; conditions: rats, acute oral administration, HCl-salts; body weight difference vs control
Method: Normally handled rats were habituated to a reversed cycle 12/12 h, and the compound as well as saline was acutely orally administered. After administration the cumulated food intake (g) was measured at 6 h and 23 h. Following that the difference in body weight between control and compound treated animals was measured.

T1 sequence (P21554 whole entry): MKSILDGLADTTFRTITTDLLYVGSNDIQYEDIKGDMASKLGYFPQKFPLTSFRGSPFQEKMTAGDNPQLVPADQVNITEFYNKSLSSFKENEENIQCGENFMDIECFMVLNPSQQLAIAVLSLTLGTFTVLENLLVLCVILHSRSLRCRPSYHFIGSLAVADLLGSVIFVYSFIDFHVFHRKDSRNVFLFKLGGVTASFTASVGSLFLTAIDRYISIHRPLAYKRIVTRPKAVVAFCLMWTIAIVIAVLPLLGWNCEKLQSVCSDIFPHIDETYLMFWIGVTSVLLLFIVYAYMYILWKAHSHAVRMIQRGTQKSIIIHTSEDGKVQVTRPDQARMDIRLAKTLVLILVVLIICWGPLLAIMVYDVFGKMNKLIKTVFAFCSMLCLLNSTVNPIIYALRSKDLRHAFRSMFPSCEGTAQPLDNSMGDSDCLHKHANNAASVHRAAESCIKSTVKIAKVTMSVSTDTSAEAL
T2 sequence (P21554 whole entry): as above

Structure (SMILES): C[C@H]1C(C(=O)NN2CCCCCC2)=NN(c2ccc(Cl)cc2Cl)[C@H]1c1ccc(F)cc1.Cl (relative stereo) [7 (HCl), cis-N-(azepan-1-yl)-5-(4-fluorophenyl)-1-(2,4-dichlorophenyl)-4-methyl-4,5-dihydro-1H-pyrazole-3-carboxamide hydrochloride]
- IC50 [1]: 0.122 µM
- Antagonism (%) [2]: 83 ± 6%

Structure (SMILES): C[C@H]1C(C(=O)NN2CCCCCC2)=NN(c2ccc(Cl)cc2Cl)[C@H]1c1ccc(Cl)cc1.Cl (relative stereo) [Example 1, cis-N-(azepan-1-yl)-5-(4-chlorophenyl)-1-(2,4-dichlorophenyl)-4-methyl-4,5-dihydro-1H-pyrazole-3-carboxamide hydrochloride]
- Antiobesic activity (reducing weight) [3]: active in this model, reducing weight
- IC50 [1]: 0.0079 ± 0.0028 µM
- Antagonism (%) [2]: 99 ± 5%

Structure (SMILES): C[C@H]1C(C(=O)NN2CCCCCC2)=NN(c2ccc(Cl)cc2Cl)[C@H]1c1ccc(Br)cc1.Cl (relative stereo) [Example 5, cis-N-(azepan-1-yl)-5-(4-bromophenyl)-1-(2,4-dichlorophenyl)-4-methyl-4,5-dihydro-1H-pyrazole-3-carboxamide hydrochloride]
- Antiobesic activity (reducing weight) [3]: active in this model, reducing weight
- IC50 [1]: 0.071 ± 0.002 µM
- Antagonism (%) [2]: 133 ± 5%

Structure (SMILES): COc1ccc([C@H]2[C@@H](C)C(C(=O)NN3CCCCCC3)=NN2c2ccc(Cl)cc2Cl)cc1.Cl (relative stereo) [Example 9, cis-N-(azepan-1-yl)-1-(2,4-dichlorophenyl)-5-(4-methoxyphenyl)-4-methyl-4,5-dihydro-1H-pyrazole-3-carboxamide hydrochloride]
- Antiobesic activity (reducing weight) [3]: active in this model, reducing weight
- IC50 [1]: 0.061 µM
- Antagonism (%) [2]: 117 ± 5%

Structure (SMILES): C[C@H]1C(C(=O)NN2CCCCCC2)=NN(c2ccc(Cl)cc2Cl)[C@H]1c1ccc(F)cc1 [Example 7]
- Antagonism (%) [2]: 52%
